1 substance from patent US11484608B2, “Non-invasive assessment of hepatic mitochondrial metabolism by positional isotopomer NMR tracer analysis (PINTA)” (YALE UNIVERSITY, priority 2017, dated 2022) can be followed below.

The test system of experiment [1] is primary hepatocytes (cytosolic and mitochondrial calcium). Nature of the experiment: Ca2+ imaging in isolated hepatocytes. In kind it is cell-based, mouse. Particulars: isolated WT hepatocytes (not InsP3R-I KO); 100 nM glucagon or 50 nM vasopressin. As to the method: Primary hepatocytes were isolated by the Yale Liver Center from wild-type and InsP3R-I KO mice and plated on glass coverslips coated with Rat Collagen Type I. Cells were loaded with the ratiometric cytosolic Ca^2+ indicator dye, Fura-2 AM (Thermo Fisher Scientific), or the mitochondrial matrix-targeted Ca^2+ indicator, Rhod-2 AM (Thermo Fisher Scientific) according to manufacturer's instructions. Ca^2+ imaging experiments were performed in 4-(2-hydroxyethyl)-1-piperazine ethanesulfonic acid (HEPES)-buffered balanced salt solution (25 mM HEPES, 121 mM NaCl, 4.7 mM KCl, 1.2 mM MgSO4, 1.2 mM KPO4, 5 mM NaHCO3, 2.0 mM CaCl2, 10 mM Glucose, pH 7.4) with or without the PKA inhibitor H-89 (25 μM) two to five hr following initial plating. Coverslips were transferred to a custom-built perfusion chamber on the stage of an inverted microscope connected to a RedShirtImaging camera (Olympus Life Science, Waltham, Mass.). […] For cytoplasmic calcium readings, changes in fluorescence (F, λ=340) were normalized by the initial fluorescence (F0, λ=380) and were expressed as F/F0. […] Individual cell responses were normalized to their respective baseline Rhod-2 AM fluorescence values, and changes were expressed as Normalized Δ Fluorescence.

The subject of experiment [2] is NAFLD and glucose tolerance (InsP3R-I dependent). In words: Chronic 3.5 week glucagon infusion in high fat fed WT and InsP3R-I KO mice. The class given is in vivo, mouse. As to the method: They underwent CLAMS metabolic cage analysis to assess energetics and food and water intake during the second week of glucagon infusion. […] 48 hr later, after a 6 hr fast, they were sacrificed under isoflurane anesthesia for measurement of hepatic lipid content as described below.
In the glucose tolerance tests, rodents were injected with 1 g kg^−1 50% dextrose (rats) or 10% dextrose (mice) intraperitoneally. Blood samples were taken through the venous catheter (rats) or by tail bleeding (mice) for measurement of plasma glucose and insulin concentrations as described below (Biochemical analysis).
Plasma glucose concentrations were measured using a YSI Glucose Analyzer. […] Plasma NEFA concentrations were measured using the Wako NEFA assay, while plasma glycerol and plasma and liver amino acid concentrations were measured by GC/MS. Liver acetyl- and malonyl-CoA (standard curve R^2=0.999 and 0.999), long-chain CoA, DAG, and ceramide concentrations were measured by LC-MS/MS, hepatic glycogen content following amyloglucosidase digestion, and TAG concentrations enzymatically. cAMP concentrations were measured using the Enzo Life Sciences Direct cAMP ELISA. Protein concentrations were measured by Western blot, using antibodies from Santa Cruz (PC, PEPCK, CAMKII), Cell Signaling (ATGL, pCAMKIV, CAMKIV, pCRTC2, CRTC2, pACC, ACC, pAMPK, AMPK, pHSL, HSL, GAPDH, and β-actin), Novus Biologicals (pCAMKII), Abcam (pATGL), LSBio (pInsP3R-I), and BD Transduction Laboratories (InsP3R-II, InsP3R-III, PKCε). The antibody to pATGL was kindly provided by Dr. Hei Sook Sul, while the antibody to total InsP3R-I was custom-made using an epitope against the last 18 amino acids of InsP3R-I. Gluconeogenic gene mRNA expression was measured by qPCR^45 using primers sequences as follows: […]

As to glucagon, the “mitochondrial and cytosolic calcium signaling” value in experiment [1] is “increases”. The “hepatic lipid content or glucose tolerance” value in experiment [2] (diet-induced obese InsP3R-I KO mice) is on record as “did not manifest any alterations”. In experiment [2] (diet-induced obese WT mice), the “body weight, food and water intake, activity and energy expenditure” value is listed as “unchanged”; the glucose tolerance entry was “marked improvement”; the hepatic ceramide concentrations result is listed as “without any alterations”. Moreover, the “reductions in liver triglyceride and diacylglycerol content and PKCε translocation” value in experiment [2] (diet-induced obese WT mice, four-week continuous glucagon infusion) was 50-80%.
